Experimental data: patent US11203582B2, “Benzamide derivatives for inhibiting endoplasmic reticulum (ER) stress” (The Board of Regents of the University of Oklahoma, priority 2017, dated 2021)

Legend:
βTC6 cells = test: Cell survival assay, intracellular ATP, βTC6 cells treated with Tm; format: cell-based; conditions: 72 h, FIG. 2C
Excerpt: The measurement of intracellular ATP level was use as a surrogate assay for cell viability. […] To confirm the authenticity of 13d's protective effect on β-cell viability (not simply an increase in ATP-specific measurement), we used the MTT assay, which measures the activity of NAD(P)H-dependent cellular oxidoreductase enzymes, as an orthogonal method to measure cell viability. […] To determine whether the protective effect of 13d on β-cells is specific to INS-1 cells, another β-cell line, βTC6, was used. […] In addition, compound 13d on its own had no effect on β-cell viability in both cell lines (FIG. 2C-D). […]
INS-1 cells or βTC6 cells were seeded at 3×10^3 cells/well in a 384-well plate and treated with compounds at the indicated concentrations. […] Cell viability was measured with an EnVision multilabel plate reader (PerkinElmer, MA, USA).

INS-1 cells [1] = test: TUNEL staining of Tm-treated INS-1 cells; format: cell-based, rat; conditions: co-treatment with Tm, 24 h
Procedure: (§1) (A) INS-1 cells were treated with or without Tm (0.1 m/mL) in the presence of 13d at indicated concentrations or DMSO for 24 h. Cleaved caspase-3 and PARP were determined by Western blotting. α-Tubulin was used as a loading control. The data shown are representative of 3 independent experiments. (B) INS-1 cells were treated with or without Tm (0.1 m/mL) in the presence of 13d (0.111M) or DMSO for 48 h, and live-cell phase-contrast images were acquired (magnification 10×). The images shown are representative of 3 independent experiments. (C) TUNEL staining of INS-1 cells. INS-1 cells were treated with 0.111 g/mL of Tm with or without compound 13d for 24 h before TUNEL staining. DAPI was used as a nuclear marker. Magnification is 20×. The images shown are representative of 3 independent experiments. (D) Quantification of TUNEL staining from 20 fields of images. ** P<0.01 compared with Tm treatment alone.
To determine whether the increase in β-cell viability following treatment with 13d is caused by a suppression of apoptotic cell death, several apoptosis-related makers were measured. First, levels of cleaved caspase-3 and cleaved PARP were assayed by Western blotting. […]

cleaved caspase-3 = test: Western blotting of cleaved caspase-3 in Tm-treated INS-1 cells; format: cell-based, rat; conditions: Tm co-treatment, 24 h
Procedure: To determine whether the increase in β-cell viability following treatment with 13d is caused by a suppression of apoptotic cell death, several apoptosis-related makers were measured. First, levels of cleaved caspase-3 and cleaved PARP were assayed by Western blotting. Caspase-3, a member of executioner caspases activated by cleavage, plays essential roles in initiating apoptotic signaling and executing the final stages of cell death, whereas the nuclear enzyme poly (ADP-ribose) polymerase (PARP) plays an important role in a number of cellular processes involving DNA repair and cell death. […] However, upon severe ER stress, caspase 3 undergoes proteolytic cleavage to produce two subunits that dimerize to form the active enzyme, which in turns cleaves PARP. […] A further assessment of apoptotic INS-1 cell death was performed using TUNEL assays to detect nuclear DNA fragmentation (a consequence of cell apoptosis) in situ.
INS-1 cells were seeded in 60-mm dishes at 8×10^5 cells/dish and treated for the indicated times. Cells were then washed with PBS and lysed with lysis buffer (Cell Signaling Technology, Danvers, Mass.) containing EDTA (Thermo, Ill.) and phosphatase inhibitors (Thermo). Aliquots of 20 μg total protein were separated on 7% SDS-PAGE gels (Life Technologies) and transferred to PVDF membranes (Life Technologies). […]

INS-1 cells [2] = test: Live-cell phase-contrast imaging of Tm-treated INS-1 cells; format: cell-based, rat; design: dose or concentration left out as unconfirmed; conditions: 48 h, FIG. 3B
Procedure: as §1

For `O=C(NCc1ccc(C(F)(F)F)cc1)c1cccc(CN2CCCCC2)c1` [Compound 13d, N-(4-trifluoromethylphenmethyl)-3-(N-piperidinyl)methyl benzamide], which “viability of βTC6 cells under Tm treatment (intracellular ATP)” value (βTC6 cells; Tm 0.3 μg/mL) is on record?
The value was “rescued the viability of βTC6 cells in a dose-dependent manner”.

And the “effect of compound on its own on β-cell viability” value (βTC6 cells; βTC6 cells, no Tm)?
Its value is “no effect”.

What about the TUNEL-positive cells (INS-1 cells [1]) of the same molecule?
The TUNEL-positive cells was 0.5%.

What about the “Tm-induced cleavage of caspase-3” value (cleaved caspase-3) of the same molecule?
The value was “completely or significantly diminished”.

What about the “viable INS-1 cells with Tm co-treatment vs Tm alone” value (INS-1 cells [2]) of the same molecule?
Its value is “significantly more viable INS-1 cells”.
